Experimental data as given in ChEMBL document CHEMBL4417631, “Oral peptide inhibitors of interleukin-23 receptor and their use to treat inflammatory bowel diseases” (2017).
pIC50: −log10 of the molar value. *1 amine or outer side, *2 acyl side, *3 side chain or, on linkers, in order; H or OH if unused. Where a SMILES comes first, the peptide text is derived from it. Bridges are numbered along the chain shown (N, C = ends). [ ]: non-standard residue; d: D form. Abu(4-yl) = O=C([C@H](CC[*:3])N[*:1])[*:2]; 2Nal = N[C@@H](Cc1ccc2ccccc2c1)C(=O)O; AEF = NCCOc1ccc(C[C@H](N)C(=O)O)cc1; αMeK = C[C@](N)(CCCCN)C(=O)O

Tests used:
Interleukin-23 receptor [1] = target: T1, Interleukin-23 receptor (Homo sapiens, UniProt Q5VWK5); assay: Inhibition of interleukin-23 binding to human interleukin-23 receptor incubated for 2 hrs by competitive binding ELISA
T1 sequence (Q5VWK5 whole entry): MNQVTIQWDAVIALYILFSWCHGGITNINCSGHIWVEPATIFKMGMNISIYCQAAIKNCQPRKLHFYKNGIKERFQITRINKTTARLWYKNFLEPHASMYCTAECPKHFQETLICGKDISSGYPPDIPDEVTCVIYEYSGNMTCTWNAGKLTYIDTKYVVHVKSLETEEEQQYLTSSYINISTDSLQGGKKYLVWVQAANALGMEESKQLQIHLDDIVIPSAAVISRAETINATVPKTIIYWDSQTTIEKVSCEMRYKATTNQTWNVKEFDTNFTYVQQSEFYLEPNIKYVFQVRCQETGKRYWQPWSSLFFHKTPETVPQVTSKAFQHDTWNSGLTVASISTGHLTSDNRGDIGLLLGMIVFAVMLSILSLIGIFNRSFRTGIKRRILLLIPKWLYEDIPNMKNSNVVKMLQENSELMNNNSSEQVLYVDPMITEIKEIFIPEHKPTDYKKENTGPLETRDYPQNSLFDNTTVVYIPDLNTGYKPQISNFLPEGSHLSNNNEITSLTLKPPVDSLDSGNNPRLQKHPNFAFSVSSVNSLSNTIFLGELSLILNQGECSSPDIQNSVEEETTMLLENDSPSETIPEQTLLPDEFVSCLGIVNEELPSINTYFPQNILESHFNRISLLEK

[2] = Half life in simulated gastric fluid at 20 uM by LC-MS/MS analysis; format: ADME
[3] = Half life in simulated intestinal fluid at 20 uM by LC-MS/MS analysis; format: ADME
Interleukin-23 receptor [4] = target: T1, Interleukin-23 receptor; assay: Inhibition of interleukin-23 receptor in human DB cells assessed as reduction in IL-23-stimulated STAT3 phosphorylation incubated for 30 mins by HTRF assay; format: cell-based

pIC50 (Interleukin-23 receptor [1])	half-life at 20 µM [2]	half-life at 20 µM [3]	pIC50 (Interleukin-23 receptor [4])	Structure (SMILES)
6.00 to 7.00	> 6 h	> 6 h	7.00 to 7.60	CC(=O)NCCCC[C@H](NC(=O)[C@](C)(CCCCN)NC(=O)[C@H](Cc1c[nH]c2ccccc12)NC(=O)[C@H](Cc1ccc(O)cc1)NC(=O)[C@@H](NC(=O)[C@H](CCC(N)=O)NC(=O)[C@H](Cc1c[nH]c2ccccc12)NC(=O)[C@@H](NC(=O)[C@H](CCC(N)=O)NC(=O)[C@@H](NC(C)=O)C(C)(C)S)[C@@H](C)O)C(C)(C)S)C(=O)N[C@@H](CC(N)=O)C(=O)NCC(N)=O
> 8.00	< 1 h	1 to 2 h	> 8.00	CC[C@](C)(NC(=O)[C@H](Cc1ccc2ccccc2c1)NC(=O)[C@H](Cc1ccc(OCCN)cc1)NC(=O)[C@@H]1CSCC[C@H](NC(C)=O)C(=O)N[C@@H](CCC(N)=O)C(=O)N[C@@H]([C@@H](C)O)C(=O)N[C@@H](Cc2c[nH]c3ccccc23)C(=O)N[C@@H](CCC(N)=O)C(=O)N1)C(=O)N[C@@H](CCCCNC(C)=O)C(=O)N[C@@H](CC(N)=O)C(=O)NCC(N)=O
> 8.00	> 6 h	> 6 h	> 8.00	CC(=O)NCCCC[C@H](NC(=O)[C@](C)(CCCCNC(C)=O)NC(=O)[C@H](Cc1ccc2ccccc2c1)NC(=O)[C@H](Cc1ccc(OCCNC(C)=O)cc1)NC(=O)[C@@H](NC(=O)[C@H](CCC(N)=O)NC(=O)[C@H](Cc1c[nH]c2ccccc12)NC(=O)[C@@H](NC(=O)[C@H](CCC(N)=O)NC(=O)[C@@H](NC(C)=O)C(C)(C)S)[C@@H](C)O)C(C)(C)S)C(=O)N[C@@H](CC(N)=O)C(=O)N[C@@H](CC(N)=O)C(N)=O
> 8.00	> 6 h	> 6 h	> 8.00	CC(=O)NCCCC[C@H](NC(=O)C(C)(C)NC(=O)[C@H](Cc1ccc2ccccc2c1)NC(=O)[C@H](Cc1ccc(OCCNC(C)=O)cc1)NC(=O)[C@@H](NC(=O)[C@H](CCC(N)=O)NC(=O)[C@H](Cc1c[nH]c2ccccc12)NC(=O)[C@@H](NC(=O)[C@H](CCC(N)=O)NC(=O)[C@@H](NC(C)=O)C(C)(C)S)[C@@H](C)O)C(C)(C)S)C(=O)N[C@@H](CC(N)=O)C(=O)N[C@@H](CC(N)=O)C(N)=O
> 8.00	> 6 h	> 6 h	> 8.00	CC(=O)N[C@H](C(=O)N[C@@H](CCC(N)=O)C(=O)N[C@H](C(=O)N[C@@H](Cc1c[nH]c2ccccc12)C(=O)N[C@@H](CCC(N)=O)C(=O)N[C@H](C(=O)N[C@@H](Cc1ccc(OCCN)cc1)C(=O)N[C@@H](Cc1ccc2ccccc2c1)C(=O)NC(C)(C)C(=O)N[C@@H](CCC(=O)O)C(=O)N[C@@H](CC(N)=O)C(=O)N[C@@H](CC(N)=O)C(N)=O)C(C)(C)S)[C@@H](C)O)C(C)(C)S
7.60 to 8.00	> 6 h	3 to 6 h	> 8.00	CC(=O)NCCCC[C@](C)(NC(=O)[C@H](Cc1ccc2ccccc2c1)NC(=O)[C@H](Cc1ccc(OCCNC(C)=O)cc1)NC(=O)[C@@H](NC(=O)[C@H](CCC(N)=O)NC(=O)[C@H](Cc1c[nH]c2ccccc12)NC(=O)[C@@H](NC(=O)[C@H](CCC(N)=O)NC(=O)[C@@H](NC(C)=O)C(C)(C)S)[C@@H](C)O)C(C)(C)S)C(=O)N[C@@H](CCC(=O)O)C(=O)N[C@@H](CC(N)=O)C(=O)NCC(N)=O
> 8.00	> 6 h	> 6 h	> 8.00	CC(=O)NCCOc1ccc(C[C@H](NC(=O)[C@@H](NC(=O)[C@H](CCC(N)=O)NC(=O)[C@H](Cc2c[nH]c3ccccc23)NC(=O)[C@@H](NC(=O)[C@H](CCC(N)=O)NC(=O)[C@@H](NC(C)=O)C(C)(C)S)[C@@H](C)O)C(C)(C)S)C(=O)N[C@@H](Cc2ccc3ccccc3c2)C(=O)N[C@@](C)(CC(C)C)C(=O)N[C@@H](CCC(N)=O)C(=O)N[C@@H](CC(N)=O)C(=O)N[C@@H](CC(N)=O)C(N)=O)cc1
> 8.00	3 to 6 h	2 to 3 h	> 8.00	CC(=O)NCCCC[C@H](NC(=O)C(C)(C)NC(=O)[C@H](Cc1ccc2ccccc2c1)NC(=O)[C@H](Cc1ccc(OCCN)cc1)NC(=O)[C@@H](NC(=O)[C@H](CCC(N)=O)NC(=O)[C@H](Cc1c[nH]c2ccccc12)NC(=O)[C@@H](NC(=O)[C@H](CCC(N)=O)NC(=O)[C@@H](NC(C)=O)C(C)(C)S)[C@@H](C)O)C(C)(C)S)C(=O)N[C@@H](CC(N)=O)C(=O)N[C@@H](CC(N)=O)C(N)=O
> 8.00	3 to 6 h	3 to 6 h	> 8.00	CC(=O)N[C@H]1CCSC[C@@H](C(=O)N[C@@H](Cc2ccc(OCCN)cc2)C(=O)N[C@@H](Cc2ccc3ccccc3c2)C(=O)N[C@@](C)(CCCCN)C(=O)N[C@@H](CC(N)=O)C(=O)N[C@@H](CC(N)=O)C(=O)NCC(N)=O)NC(=O)[C@H](CCC(N)=O)NC(=O)[C@H](Cc2c[nH]c3ccccc23)NC(=O)[C@H]([C@@H](C)O)NC(=O)[C@H](CCC(N)=O)NC1=O (Ac-[Abu(4-yl)]QTWQC[AEF][2Nal][αMeK]NNG-NH2; thioether 1-6)
	> 6 h	3 to 6 h	> 8.00	COc1ccc(C[C@H](NC(=O)[C@@H](NC(=O)[C@H](CCC(N)=O)NC(=O)[C@H](Cc2c[nH]c3ccccc23)NC(=O)[C@@H](NC(=O)[C@H](CCC(N)=O)NC(=O)[C@@H](NC(C)=O)C(C)(C)S)[C@@H](C)O)C(C)(C)S)C(=O)N[C@@H](Cc2ccc3ccccc3c2)C(=O)NC(C)(C)C(=O)N[C@@H](CCCCNC(C)=O)C(=O)N[C@@H](CC(N)=O)C(=O)N[C@@H](CC(N)=O)C(N)=O)cc1
	> 6 h	3 to 6 h	> 8.00	CC[C@H](NC(=O)[C@H](CC(N)=O)NC(=O)[C@H](CCCCNC(C)=O)NC(=O)C(C)(C)NC(=O)[C@H](Cc1ccc2ccccc2c1)NC(=O)[C@H](Cc1ccc(OC)cc1)NC(=O)[C@@H](NC(=O)[C@H](CCC(N)=O)NC(=O)[C@H](Cc1c[nH]c2ccccc12)NC(=O)[C@@H](NC(=O)[C@H](CC(N)=O)NC(=O)[C@@H](NC(C)=O)C(C)(C)S)[C@@H](C)O)C(C)(C)S)C(N)=O
	< 1 h	< 1 h	> 8.00	CC(=O)NCCCC[C@H](NC(=O)[C@H](CCC(C)C)NC(=O)[C@H](Cc1ccc2ccccc2c1)NC(=O)[C@H](Cc1ccc(OCCN)cc1)NC(=O)[C@@H](NC(=O)[C@H](CCC(N)=O)NC(=O)[C@H](Cc1c[nH]c2ccccc12)NC(=O)[C@@H](NC(=O)[C@H](CC(N)=O)NC(=O)[C@@H](NC(C)=O)C(C)(C)S)[C@@H](C)O)C(C)(C)S)C(=O)N[C@@H](CC(N)=O)C(=O)NCCC(N)=O
	> 6 h	> 6 h	> 8.00	CC(=O)NCCCC[C@H](NC(=O)C(C)(C)NC(=O)[C@H](Cc1ccc2ccccc2c1)NC(=O)[C@H](Cc1ccc(OCCN)cc1)NC(=O)[C@@H](NC(=O)[C@H](CCC(N)=O)NC(=O)[C@H](Cc1c[nH]c2ccccc12)NC(=O)[C@@H](NC(=O)[C@H](CCC(N)=O)NC(=O)[C@@H](NC(C)=O)C(C)(C)S)[C@@H](C)O)C(C)(C)S)C(=O)N[C@@H](CC(N)=O)C(=O)NCCC(N)=O
	< 1 h	1 to 2 h	> 8.00	CC(=O)N[C@H](C(=O)N[C@@H](CC(N)=O)C(=O)N[C@H](C(=O)N[C@@H](Cc1c[nH]c2ccccc12)C(=O)N[C@@H](CCC(N)=O)C(=O)N[C@H](C(=O)N[C@@H](Cc1ccc(OCCN)cc1)C(=O)N[C@@H](Cc1ccc2ccccc2c1)C(=O)N[C@@H](CCC(C)C)C(=O)N[C@@H](CCC(=O)O)C(=O)N[C@@H](CC(N)=O)C(=O)N[C@@H](C)C(N)=O)C(C)(C)S)[C@@H](C)O)C(C)(C)S
	> 6 h	> 6 h	> 8.00	COc1ccc(C[C@H](NC(=O)[C@@H](NC(=O)[C@H](CCC(N)=O)NC(=O)[C@H](Cc2c[nH]c3ccccc23)NC(=O)[C@@H](NC(=O)[C@H](CC(N)=O)NC(=O)[C@@H](NC(C)=O)C(C)(C)S)[C@@H](C)O)C(C)(C)S)C(=O)N[C@@H](Cc2ccc3ccccc3c2)C(=O)NC(C)(C)C(=O)N[C@@H](CCCCNC(C)=O)C(=O)N[C@@H](CC(N)=O)C(=O)N[C@@H](CCC(N)=O)C(N)=O)cc1
	> 6 h	> 6 h	> 8.00	COc1ccc(C[C@H](NC(=O)[C@@H](NC(=O)[C@H](CCC(N)=O)NC(=O)[C@H](Cc2c[nH]c3ccccc23)NC(=O)[C@@H](NC(=O)[C@H](CC(N)=O)NC(=O)[C@@H](NC(C)=O)C(C)(C)S)[C@@H](C)O)C(C)(C)S)C(=O)N[C@@H](Cc2ccc3ccccc3c2)C(=O)NC(C)(C)C(=O)N[C@@H](CCCCNC(C)=O)C(=O)N[C@@H](CC(N)=O)C(=O)N[C@@H](CC(N)=O)C(N)=O)cc1
	< 1 h	< 1 h	7.60 to 8.00	CC(=O)N[C@H](C(=O)N[C@@H](CCC(N)=O)C(=O)N[C@H](C(=O)N[C@@H](Cc1c[nH]c2ccccc12)C(=O)N[C@@H](CCC(N)=O)C(=O)N[C@H](C(=O)N[C@@H](Cc1ccc(OCCN)cc1)C(=O)N[C@@H](Cc1ccc2ccccc2c1)C(=O)N[C@@H](CCC(C)C)C(=O)N[C@@H](CCC(=O)O)C(=O)N[C@@H](CC(N)=O)C(=O)N[C@@H](C)C(N)=O)C(C)(C)S)[C@@H](C)O)C(C)(C)S
